In ChEMBL document CHEMBL1122047:
Several values for one entry are separate records, joined by “and”; a condition that tells them apart may be missing. Identical values can stand only once.

Target: Substance-P receptor (Cavia porcellus) (UniProt P30547)
Experiment: Relative affinity for Tachykinin receptor 1 compared with [Nle11]-SP

Sequence of Substance-P receptor (Cavia porcellus) (P30547 whole entry): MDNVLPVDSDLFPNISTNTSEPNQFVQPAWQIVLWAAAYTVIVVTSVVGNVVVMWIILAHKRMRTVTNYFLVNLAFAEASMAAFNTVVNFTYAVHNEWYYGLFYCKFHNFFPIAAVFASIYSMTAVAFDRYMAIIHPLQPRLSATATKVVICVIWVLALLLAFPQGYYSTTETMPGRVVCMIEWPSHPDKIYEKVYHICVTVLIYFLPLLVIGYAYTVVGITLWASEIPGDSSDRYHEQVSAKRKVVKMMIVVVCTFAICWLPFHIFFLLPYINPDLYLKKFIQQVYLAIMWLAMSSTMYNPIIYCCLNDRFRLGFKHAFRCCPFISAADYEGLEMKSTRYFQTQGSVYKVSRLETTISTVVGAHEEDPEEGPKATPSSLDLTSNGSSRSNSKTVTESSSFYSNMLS

Compound | RA
CC(C)C[C@H](NC(=O)CNC(=O)[C@H](Cc1ccccc1)NC(=O)[C@H](Cc1ccccc1)NC(=O)[C@H](CCC(N)=O)NC(=O)[C@H](CCC(N)=O)NC(=O)[C@@H]1CCCN1C(=O)[C@H](CCCCN)NC(=O)[C@@H]1CCCN1C(=O)[C@@H](N)CCCN=C(N)N)C(=O)N[C@@H](Cc1ccc(N=[N+]=[N-])cc1)C(N)=O | 48% and 50%
CCCC[C@H](NC(=O)[C@H](CC(C)C)NC(=O)CNC(=O)[C@H](Cc1ccc(N=[N+]=[N-])cc1)NC(=O)[C@H](Cc1ccccc1)NC(=O)[C@H](CCC(N)=O)NC(=O)[C@H](CCC(N)=O)NC(=O)[C@@H]1CCCN1C(=O)[C@H](CCCCN)NC(=O)[C@@H]1CCCN1C(=O)[C@@H](N)CCCN=C(N)N)C(N)=O | 50%
CCCC[C@H](NC(=O)[C@H](CC(C)C)NC(=O)CNC(=O)[C@H](Cc1ccccc1)NC(=O)[C@H](Cc1ccccc1)NC(=O)[C@H](CCC(N)=O)NC(=O)[C@H](CCC(N)=O)NC(=O)[C@@H]1CCCN1C(=O)[C@H](CCCCN)NC(=O)[C@@H]1CCCN1C(=O)[C@@H](N)CCCN=C(N)N)C(N)=O | 100%
CCCC[C@H](NC(=O)[C@H](CC(C)C)NC(=O)CNC(=O)[C@H](Cc1ccccc1)NC(=O)[C@H](Cc1ccc([N+](=O)[O-])cc1)NC(=O)[C@H](CCC(N)=O)NC(=O)[C@H](CCC(N)=O)NC(=O)[C@@H]1CCCN1C(=O)[C@H](CCCCN)NC(=O)[C@@H]1CCCN1C(=O)[C@@H](N)CCCN=C(N)N)C(N)=O | 10%

Continued, values first:

RA | Compound
100% | CC(C)C[C@H](NC(=O)CNC(=O)[C@H](Cc1ccccc1)NC(=O)[C@H](Cc1ccccc1)NC(=O)[C@H](CCC(N)=O)NC(=O)[C@H](CCC(N)=O)NC(=O)[C@@H]1CCCN1C(=O)[C@H](CCCCN)NC(=O)[C@@H]1CCCN1C(=O)[C@@H](N)CCCN=C(N)N)C(=O)N[C@@H](Cc1ccccc1)C(N)=O
81% and 72% | CC(C)C[C@H](NC(=O)CNC(=O)[C@H](Cc1ccccc1)NC(=O)[C@H](Cc1ccccc1)NC(=O)[C@H](CCC(N)=O)NC(=O)[C@H](CCC(N)=O)NC(=O)[C@@H]1CCCN1C(=O)[C@H](CCCCN)NC(=O)[C@@H]1CCCN1C(=O)[C@@H](N)CCCN=C(N)N)C(=O)N[C@@H](Cc1ccc([N+]#N)cc1)C(N)=O
55% and 69% | CC(C)C[C@H](NC(=O)CNC(=O)[C@H](Cc1ccccc1)NC(=O)[C@H](Cc1ccccc1)NC(=O)[C@H](CCC(N)=O)NC(=O)[C@H](CCC(N)=O)NC(=O)[C@@H]1CCCN1C(=O)[C@H](CCCCN)NC(=O)[C@@H]1CCCN1C(=O)[C@@H](N)CCCN=C(N)N)C(=O)N[C@@H](Cc1ccc(N)cc1)C(N)=O
